# Results reported in patent publication US20260224549A1, “COMPOUNDS, COMPOSITIONS, AND METHODS FOR TREATING, AMELIORATING, AND/OR PREVENTING PAIN” (priority 2023, published 2026).
# Where “and” joins values, the source holds several entries; their conditions need not be identical. Equal values may be shown once. Read-outs that look alike come from different tables or passages of the source.
# Key:
# in vivo = details: dog, in vivo
# Description: (§1) The chosen dose can be higher, as long as within the pharmacological range.
# dog = assay: in vivo
# Description: as §1
# [1] = Static vapor sorption studies; assay type: physicochemical; details: Panel: Static humidity; 7 experiments
# Description: Static Vapor Sorption Studies
# Static vapor sorption studies were done in hermetic humidity chambers using saturated salts, or environmental humidity chambers to control the temperature and humidity. Data collected during dynamic vapor sorption studies often are not at thermodynamic equilibrium. To gain a better understanding of the water uptake and the critical humidity level of the API, samples of the starting material (i.e., Form A) were monitored in static humidity chambers to allow the sample to equilibrate with atmospheric moisture.
# In these studies, water vapor sorption was determined gravimetrically by storing samples in open aluminum dishes. Compound I diphosphate salt lot was used for this study. Samples were stored at 7 different humidity levels at ambient temperature (Table 19). Approximately 50 mg of Form A was staged at each humidity condition. The samples were weighed before placing them in the chamber and then re-weighed after 3 weeks. After re-weighing, the samples were immediately analyzed by XRD to determine whether a change in form had occurred.
# The sample stored at 11% RH was an outlier and was therefore omitted from the final isotherm plot. The static isotherm plot is roughly consistent with the DVS isotherm plot (FIG. 12F) with a large moisture uptake at around 40% RH and a maximum uptake between 4 and 5 weight percent.
# [2] = Description: The screen was performed using solvent recrystallizations using different conditions, as well as non-competitive slurry experiments, to manipulate the solid-state form of the test material. Samples generated during the study were characterized using differential scanning calorimetry (DSC), thermogravimetric analysis (TGA), powder X-ray diffraction (XRD), and dynamic vapor sorption (DVS).
# To perform the solvent-based portion of the polymorph screen, the test material was recrystallized using various solvents under approximately 78 different crystal growth conditions. The scale of the recrystallization experiments was approximately 1 to 20 mL. The method of changing the crystal growth conditions was by using single and binary arrays of solvent mixtures. The saturation temperature, growth temperature, and evaporation rate were also varied to create additional differences in crystal growth conditions.
# Saturated solutions were prepared by agitating excess test material in contact with the various solvent systems at the saturation temperature. The mother liquor was separated from the residual solids by filtration if solids remained in the solution. The mother liquor was then heated above the saturation temperature to dissolve any remaining solids. The temperature of each solution was then adjusted to the growth temperature and a controlled nitrogen shear flow was introduced to begin solvent evaporation.
# In addition to the solvent recrystallization experiments, non-competitive slurry experiments were performed to search for new solid-state forms. These experiments rely on solubility differences of different polymorphic form, if the compound exists in different polymorphic forms. As such, only polymorphs having a lower solubility (i.e., increased stability) than the original crystalline form can result from a non-competitive slurry experiment.
# Essentially, when a solid is mixed with solvent to create slurry, a saturated solution is formed. The solution is saturated with respect to the polymorphic form dissolved.
# The slurry experiments described herein were performed by exposing excess supplied material (i.e., Form A) to solvents and agitating the resulting suspensions for one week at ambient temperature. The solids were filtered and analyzed by XRD to determine the resulting form(s).
# Solids generated from the solvent based recrystallization panels and otherwise provided samples were analyzed by powder XRD. To mitigate preferred grain effects, a two dimensional detection system was used to collect all the XRD screening data. The two dimensional detector integrates along the concentric Debye cones which helps reduce pattern variation. If bright spots appear in the conical rings, it indicates strong preferred grain effects that can lead to considerable variability in the observed diffraction patterns including changes in peak intensities.
# The analysis entailed cluster analysis and multivariate statistics to group together any patterns that were determined to be statistically the same.
# In the dendrogram, each pair of diffraction patterns is connected via a single node, which corresponds to a dissimilarity value (between 0 and 1) on the y-axis. The higher the connecting node is, the more dissimilar the two patterns are. A threshold dissimilarity value (~0.4 in this case) is used to group similar patterns into clusters, which should correspond to different solid state forms. The cluster plot is a 3D representation of the same analysis.
# human μ-opioid receptor = details: G-protein signaling over β-arrestin signaling
# Description: Applying ^19F NMR, one can measure the quantity of G-protein signaling conformation, as well as that of β-arrestin signaling conformation, of the μ-opioid receptor as induced by an agonist.
# μ-opioid receptor = μ-opioid receptor (Rattus norvegicus, UniProt P33535)
# Chain of μ-opioid receptor (P33535 whole entry): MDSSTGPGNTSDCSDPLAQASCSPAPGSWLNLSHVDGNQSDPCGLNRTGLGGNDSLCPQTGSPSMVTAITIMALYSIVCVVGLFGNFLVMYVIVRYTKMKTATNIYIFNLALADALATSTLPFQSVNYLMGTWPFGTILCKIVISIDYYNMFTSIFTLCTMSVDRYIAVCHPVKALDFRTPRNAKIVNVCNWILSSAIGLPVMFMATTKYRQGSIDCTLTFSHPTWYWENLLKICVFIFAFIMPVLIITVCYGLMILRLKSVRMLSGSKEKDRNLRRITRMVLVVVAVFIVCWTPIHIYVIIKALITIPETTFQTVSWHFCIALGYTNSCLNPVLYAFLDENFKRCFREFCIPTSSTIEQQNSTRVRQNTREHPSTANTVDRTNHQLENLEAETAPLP
# rats = details: exposures far above the ED50 in rats
# [3] = Panel: Anti-solvent addition, 15 experiments
# [4] = Panel: Cooled to −20° C., single solvent, 12 experiments
# [5] = Panel: Fast evaporation, binary solvent, 13 experiments
# [6] = Panel: Fast evaporation, single solvent, 65° C., 14 experiments
# [7] = Panel: Fast evaporation, single solvent, ambient, 24 experiments
# [8] = Panel: Non-competitive slurries, 15 experiments
# [9] = Total of all panels, 100 experiments
structure (smiles),measurement,setting,value
"CN(C)C[C@H]1CN(CCc2ccsc2)CC[C@]1(O)c1cccc(C(N)=O)c1 [Compound I, 3-(3S, 4R)-3-((dimethylamino)methyl)-4-hydroxy-1-(2-(thiophen-3-yl)ethyl)piperidin-4-yl-benzamide]",NOAEL,in vivo,60 mg/kg/day and 33.3 mg/kg
same,NOAEL HED for 50 kg subject,dog,1665 mg
same,No. of experiments giving Amorphous Form,[1],0
same,No. of experiments giving Form A,[1],7
same,No. of experiments with No solid recovered,[1],0
same,No. of experiments giving Amorphous Form,[2]; [3],0
same,No. of experiments giving Form A,[2]; [3],9
same,No. of experiments with No solid recovered,[2]; [3],6
same,No. of experiments giving Amorphous Form,[2]; [4],0
same,No. of experiments giving Form A,[2]; [4],0
same,No. of experiments with No solid recovered,[2]; [4],12
same,No. of experiments giving Amorphous Form,[2]; [5],1
same,No. of experiments giving Form A,[2]; [5],9
same,No. of experiments with No solid recovered,[2]; [5],3
same,No. of experiments giving Amorphous Form,[2]; [6],2
same,No. of experiments giving Form A,[2]; [6],4
same,No. of experiments with No solid recovered,[2]; [6],8
same,No. of experiments giving Amorphous Form,[2]; [7],6
same,No. of experiments giving Form A,[2]; [7],1
same,No. of experiments with No solid recovered,[2]; [7],17
same,No. of experiments giving Amorphous Form,[2]; [8],0
same,No. of experiments giving Form A,[2]; [8],13
same,No. of experiments with No solid recovered,[2]; [8],2
same,No. of experiments giving Amorphous Form,[2]; [9],9
same,No. of experiments giving Form A,[2]; [9],43
same,No. of experiments with No solid recovered,[2]; [9],48
same,% of Total experiments giving Amorphous Form,"[2]; all panels, 100 experiments",9%
same,% of Total experiments giving Form A,"[2]; all panels, 100 experiments",43%
same,% of Total experiments with No solid recovered,"[2]; all panels, 100 experiments",48%
same,signaling pathway selectivity,human μ-opioid receptor,extremely cell-signaling-pathway-selective μ-opioid agonist
same,mediation of antinociceptive effect,μ-opioid receptor; in vivo,mediated exclusively by μ-opioid receptor
same,pain relief in preclinical models,μ-opioid receptor; preclinical models,comparable to Schedule 2 opiates
same,respiratory depression or other opiate-based adverse effects,rats,no respiratory depression or other opiate-based adverse effects
